Laboratory results as given in US11040035B2, “3-oxo-2,6-diphenyl-2,3-dihydropyridazine-4-carboxamides” (BAYER PHARMA AKTIENGESELLSCHAFT, priority 2016, dated 2021).

Key:
[1] = biological target: T1, AHR (Homo sapiens, UniProt P35869); test: In vitro assay 2: agonism in human cell line (transactivation assay)
T1 sequence (P35869 11-848): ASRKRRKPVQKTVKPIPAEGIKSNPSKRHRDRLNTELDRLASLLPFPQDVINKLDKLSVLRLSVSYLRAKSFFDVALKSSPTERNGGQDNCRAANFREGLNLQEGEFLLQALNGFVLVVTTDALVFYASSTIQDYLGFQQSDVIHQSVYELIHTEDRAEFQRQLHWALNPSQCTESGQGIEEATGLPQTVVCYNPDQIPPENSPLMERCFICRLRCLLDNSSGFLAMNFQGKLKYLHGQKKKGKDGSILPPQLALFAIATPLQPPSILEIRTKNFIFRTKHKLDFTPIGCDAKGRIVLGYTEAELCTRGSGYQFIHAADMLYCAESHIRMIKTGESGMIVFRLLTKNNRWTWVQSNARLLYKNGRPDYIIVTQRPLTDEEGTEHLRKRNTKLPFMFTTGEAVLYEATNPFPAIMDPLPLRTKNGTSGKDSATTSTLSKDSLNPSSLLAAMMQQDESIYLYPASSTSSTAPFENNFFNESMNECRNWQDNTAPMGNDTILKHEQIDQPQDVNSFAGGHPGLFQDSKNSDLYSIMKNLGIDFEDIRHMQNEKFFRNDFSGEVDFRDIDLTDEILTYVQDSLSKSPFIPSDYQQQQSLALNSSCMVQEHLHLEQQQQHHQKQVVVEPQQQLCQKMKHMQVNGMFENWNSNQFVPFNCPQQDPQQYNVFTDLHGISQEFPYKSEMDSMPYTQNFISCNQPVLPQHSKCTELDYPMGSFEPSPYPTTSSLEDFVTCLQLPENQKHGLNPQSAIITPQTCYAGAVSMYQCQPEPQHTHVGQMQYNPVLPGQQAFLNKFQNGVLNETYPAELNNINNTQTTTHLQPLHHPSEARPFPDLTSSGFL

[2] = biological target: T1, AHR; test: In vitro assay 1: antagonism in human cell line (transactivation assay, kynurenic acid prestimulated); conditions: Assay 1: AHR-luc Hum Antagonism IC50 [M], 150 μM kynurenic acid, 20 hours, firefly luciferase
[3] = Assay 2: AHR-luc Hum Agonism IC50 [M], no kynurenic acid, 20 hours, firefly luciferase
[4] = read-out: Assay 2: AHR-luc Hum Agonism IC50, no kynurenic acid, 20 hours, firefly luciferase

SMILES: O=C(NC(CO)C1CCCO1)c1cc(-c2ccc(Cl)cc2)nn(-c2cccc(F)c2)c1=O (single isomer, unassigned) [Example 316, 1,4-anhydro-5-({[6-(4-chlorophenyl)-2-(3-fluorophenyl)-3-oxo-2,3-dihydropyridazin-4-yl]carbonyl}amino)-2,3,5-trideoxyhexitol]
- IC50 [1, 3]: > 2e-05 M
- IC50 [2]: 3.7e-07 M

SMILES: C[C@@H](O)CCNC(=O)c1cc(-c2ccc(C(F)(F)F)cc2)nn(-c2cccc(F)c2)c1=O (single isomer, unassigned) [Example 330]
- IC50 [1, 3]: > 2e-05 M
- IC50 [2]: 1.21e-07 M

SMILES: O=C(N[C@H]1CC[C@@H]1O)c1cc(-c2ccc(Cl)cc2)nn(-c2cccc(F)c2)c1=O (single isomer, unassigned) [Example 335, (−)-6-(4-chlorophenyl)-2-(3-fluorophenyl)-N-(trans-2-hydroxycyclobutyl)-3-oxo-2,3-dihydropyridazine-4-carboxamide]
- IC50 [1, 3]: > 2e-05 M
- IC50 [2]: 4.05e-07 M

SMILES: O=C(NC(CO)C1CCCO1)c1cc(-c2ccc(C(F)(F)F)cc2)nn(-c2cccc(F)c2)c1=O (single isomer, unassigned) [Example 339, 1,4-anhydro-2,3,5-trideoxy-5-[({2-(3-fluorophenyl)-3-oxo-6-[4-(trifluoromethyl)phenyl]-2,3-dihydropyridazin-4-yl}carbonyl)amino]hexitol]
- IC50 [1, 3]: > 2e-05 M
- IC50 [2]: 4.59e-08 M

SMILES: CC(NC(=O)c1cc(-c2ccc(Cl)cc2)nn(-c2cccc(F)c2)c1=O)C(O)CO (single isomer, unassigned) [Example 346, 6-(4-chlorophenyl)-N-(3,4-dihydroxybutan-2-yl)-2-(3-fluorophenyl)-3-oxo-2,3-dihydropyridazine-4-carboxamide]
- IC50 [1, 3]: > 2e-05 M
- IC50 [2]: 1.98e-07 M

SMILES: CC(NC(=O)c1cc(-c2ccc(Cl)cc2)nn(-c2cccc(F)c2)c1=O)C(O)CO (single isomer, unassigned) [Example 347, 6-(4-chlorophenyl)-N-(3,4-dihydroxybutan-2-yl)-2-(3-fluorophenyl)-3-oxo-2,3-dihydropyridazine-4-carboxamide]
- IC50 [1, 4]: > 2e-05 M
- IC50 [2]: 1.69e-07 M

SMILES: CC(O)C(NC(=O)c1cc(-c2ccc(C(F)(F)F)cc2)nn(-c2cccc(F)c2)c1=O)C(F)(F)F (single isomer, unassigned) [Example 349, 2-(3-fluorophenyl)-3-oxo-N-(1,1,1-trifluoro-3-hydroxybutan-2-yl)-6-[4-(trifluoromethyl)phenyl]-2,3-dihydropyridazine-4-carboxamide]
- IC50 [1, 3]: > 2e-05 M
- IC50 [2]: 3.54e-09 M

SMILES: CC(O)C(NC(=O)c1cc(-c2ccc(C(F)(F)F)cc2)nn(-c2cccc(F)c2)c1=O)C(F)(F)F (single isomer, unassigned) [Example 350, 2-(3-fluorophenyl)-3-oxo-N-(1,1,1-trifluoro-3-hydroxybutan-2-yl)-6-[4-(trifluoromethyl)phenyl]-2,3-dihydropyridazine-4-carboxamide]
- IC50 [1, 4]: > 2e-05 M
- IC50 [2]: 2.08e-07 M

SMILES: O=C(N[C@@H]1CC[C@@H]1O)c1cc(-c2ccc(Cl)cc2)nn(-c2cccc(F)c2)c1=O (single isomer, unassigned) [Example 358]
- IC50 [1, 3]: > 2e-05 M
- IC50 [2]: 1.15e-07 M

SMILES: CC(NC(=O)c1cc(-c2ccc(Cl)cc2)nn(-c2cccc(F)c2)c1=O)C(O)CO (single isomer, unassigned) [Example 359, 6-(4-chlorophenyl)-N-(3,4-dihydroxybutan-2-yl)-2-(3-fluorophenyl)-3-oxo-2,3-dihydropyridazine-4-carboxamide]
- IC50 [1, 4]: > 2e-05 M
- IC50 [2]: 2.67e-08 M

SMILES: CC(NC(=O)c1cc(-c2ccc(Cl)cc2)nn(-c2cccc(F)c2)c1=O)C(O)CO (single isomer, unassigned) [Example 360, 6-(4-chlorophenyl)-N-(3,4-dihydroxybutan-2-yl)-2-(3-fluorophenyl)-3-oxo-2,3-dihydropyridazine-4-carboxamide]
- IC50 [1, 4]: > 2e-05 M
- IC50 [2]: 1.39e-08 M
